# Results as given in ChEMBL document CHEMBL5321275, “Discovery, Optimization, and Evaluation of Novel N-(Benzimidazol-5-yl)-1,3,4-thiadiazol-2-amine Analogues as Potent STAT3 Inhibitors for Cancer Treatment” (J Med Chem, 2023).
# Calls of active or inactive are those of the source. The rule behind the calls is not given here.
# Key:
# [1] = biological target: T1, Signal transducer and activator of transcription 3 (Homo sapiens, UniProt P40763); test: Binding affinity to STAT3 (unknown origin) assessed as conformational change in STAT3 protein measured after 1 hr by circular dichroism method
# MDA-MB-231 [2] = test: Induction of cell cycle arrest in human MDA-MB-231 cells assessed as accumulation of cells at G0/G1 phase measured after 24 hrs by PI staining based flow cytometry analysis; format: functional; settings: dose <= 10.0 µM
# DU-145 [3] = test: Induction of apoptosis in human DU-145 cells assessed as late apoptotic cells at 10 uM measured after 48 hrs by annexin V-FITC and PI staining based flow cytometry analysis (reference value: 2.0%); format: functional
# DU-145 [4] = test: Antitumor activity against human DU-145 cells xenografted in Balb/c nude mouse model assessed as reduction in phosphorylated STAT3 at Y705 residue by immunoblotting analysis; format: functional, cell-based
# [5] = Toxicity in Balb/c mouse assessed as effect on heart at 50 mg/kg by hematoxylin and eosin staining based histopathological analysis; format: organism-based; settings: in vivo
# [6] = Drug concentration in ICR mouse plasma at 50 mg/kg, po measured after 2 to 8 hrs; format: ADME, organism-based; settings: in vivo, time 2-8 hrs
# DU-145 [7] = test: Antitumor activity against human DU-145 cells xenografted in Balb/c nude mouse model assessed as tumor growth inhibition at 50 mg/kg, ip administered once daily for 16 days by vernier caliper method relative to control; format: functional; settings: DU-145, 384 h, time 16 day, read-out: TGI
# [8] = Metabolic stability in mouse liver microsomes assessed as intrinsic clearance in presence of NADPH/UDPGA; format: ADME, Microsome; settings: read-out: CLH
# HEK-Blue IL-6 = test: Inhibition of IL-6/JAK/STAT3 signalling pathway in HEK-Blue IL-6 cells at 10 uM incubated for 16 hrs by QUANTI-blue assay relative to control; format: cell-based; settings: Homo sapiens
# [9] = Clearance in ICR mouse at 50 mg/kg, po measured upto 96 hrs by HPLC-MS/MS analysis; format: ADME, organism-based; settings: in vivo
# [10] = Oral bioavailability in ICR mouse at 50 mg/kg measured upto 96 hrs by HPLC-MS/MS analysis; format: ADME, organism-based; settings: in vivo
# [11] = Toxicity in Balb/c mouse assessed as effect on body weight loss at 50 mg/kg, ip administered once daily for 16 days; format: organism-based; settings: in vivo, 384 h, time 16 day
# HCT-116 = test: Antiproliferative activity against human HCT-116 cells assessed as inhibition of cell growth measured after 96 hrs by MTT assay; format: functional, cell-based; settings: HCT-116, 96 h
# DU-145 [12] = test: Induction of apoptosis in human DU-145 cells assessed as cell apoptotic percentage at 10 uM measured after 48 hrs by annexin V-FITC and PI staining based flow cytometry analysis relative to control; format: functional
# MDA-MB-231 [13] = test: Induction of apoptosis in human MDA-MB-231 cells assessed as late apoptotic cells at 1 uM measured after 48 hrs by annexin V-FITC and PI staining based flow cytometry analysis (reference value: 3.1%); format: functional
# [14] = biological target: T1, Signal transducer and activator of transcription 3; test: Inhibition of STAT3 dimerization in human DU-145 cells assessed as increase in amount of STAT3 monomer at upto 10 uM measured after 12 hrs; format: cell-based
# [15] = Half life in ICR mouse at 50 mg/kg, po measured upto 96 hrs by HPLC-MS/MS analysis; format: ADME, organism-based; settings: in vivo
# [16] = biological target: T1, Signal transducer and activator of transcription 3; test: Inhibition of STAT3 phosphorylation at Tyr705 residue in human MDA-MB-231 cells incubated for 24 hrs by Western blot analysis; format: cell-based; settings: dose <= 10.0 µM
# [17] = Volume of distribution at steady state in ICR mouse at 5 mg/kg, iv measured upto 96 hrs by HPLC-MS/MS analysis; format: ADME, organism-based; settings: in vivo, read-out: Vdss
# [18] = AUC (0 to infinity) in ICR mouse at 5 mg/kg, iv measured upto 96 hrs by HPLC-MS/MS analysis; format: ADME, organism-based; parameters: dose 5 mg/kg, time < 96 hrs, route iv; settings: in vivo
# [19] = biological target: Tyrosine-protein kinase JAK2 (Homo sapiens) (UniProt O60674); test: Inhibition of JAK2 phosphorylation in human DU-145 cells at 10 uM measured after 24 hrs by Western blot analysis; format: cell-based
# MDA-MB-231 [20] = test: Induction of apoptosis in human MDA-MB-231 cells assessed as early apoptotic cells at 10 uM measured after 48 hrs by annexin V-FITC and PI staining based flow cytometry analysis (reference value: 6.7%); format: functional
# [21] = Tmax in ICR mouse at 5 mg/kg, iv measured upto 96 hrs by HPLC-MS/MS analysis; format: ADME, organism-based; settings: in vivo
# [22] = MRT (0 to t) in ICR mouse at 50 mg/kg, po measured upto 96 hrs by HPLC-MS/MS analysis; format: ADME, organism-based; settings: in vivo
# [23] = biological target: T2, Signal transducer and activator of transcription 5A (Homo sapiens) (UniProt P42229); test: Inhibition of STAT5 phosphorylation in human DU-145 cells at 10 uM measured after 24 hrs by Western blot analysis; format: cell-based
# T2 sequence (whole entry): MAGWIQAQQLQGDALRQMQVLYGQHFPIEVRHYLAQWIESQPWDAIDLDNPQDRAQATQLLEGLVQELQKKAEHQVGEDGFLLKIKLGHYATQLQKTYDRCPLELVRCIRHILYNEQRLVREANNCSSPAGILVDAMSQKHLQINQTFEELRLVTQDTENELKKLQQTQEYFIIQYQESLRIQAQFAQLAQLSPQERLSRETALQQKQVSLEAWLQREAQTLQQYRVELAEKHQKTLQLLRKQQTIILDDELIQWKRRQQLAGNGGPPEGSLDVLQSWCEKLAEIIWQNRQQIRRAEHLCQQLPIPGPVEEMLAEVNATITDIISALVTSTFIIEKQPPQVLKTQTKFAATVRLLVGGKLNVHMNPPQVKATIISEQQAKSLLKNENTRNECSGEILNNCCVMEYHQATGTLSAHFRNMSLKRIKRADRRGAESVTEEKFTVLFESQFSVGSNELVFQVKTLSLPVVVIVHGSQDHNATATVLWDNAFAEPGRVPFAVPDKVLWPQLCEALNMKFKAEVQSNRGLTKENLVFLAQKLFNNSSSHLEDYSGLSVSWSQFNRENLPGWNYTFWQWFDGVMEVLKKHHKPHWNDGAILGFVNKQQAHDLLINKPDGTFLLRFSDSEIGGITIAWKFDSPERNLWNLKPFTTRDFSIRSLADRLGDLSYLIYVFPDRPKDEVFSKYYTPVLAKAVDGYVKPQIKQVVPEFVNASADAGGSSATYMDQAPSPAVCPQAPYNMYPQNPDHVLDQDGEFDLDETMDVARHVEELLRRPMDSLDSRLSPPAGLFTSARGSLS
# MDA-MB-231 [24] = test: Induction of apoptosis in human MDA-MB-231 cells assessed as early apoptotic cells at 1 uM measured after 48 hrs by annexin V-FITC and PI staining based flow cytometry analysis (reference value: 6.7%); format: functional
# [25] = biological target: T1, Signal transducer and activator of transcription 3; test: Inhibition of STAT3 nuclear translocation in human DU-145 cells at 5 uM measured after 24 hrs by immunofluorescence assay; format: cell-based
# [26] = Metabolic stability in mouse liver microsomes assessed as half life in presence of NADPH/UDPGA; format: ADME, Microsome
# T1 sequence (P40763 whole entry): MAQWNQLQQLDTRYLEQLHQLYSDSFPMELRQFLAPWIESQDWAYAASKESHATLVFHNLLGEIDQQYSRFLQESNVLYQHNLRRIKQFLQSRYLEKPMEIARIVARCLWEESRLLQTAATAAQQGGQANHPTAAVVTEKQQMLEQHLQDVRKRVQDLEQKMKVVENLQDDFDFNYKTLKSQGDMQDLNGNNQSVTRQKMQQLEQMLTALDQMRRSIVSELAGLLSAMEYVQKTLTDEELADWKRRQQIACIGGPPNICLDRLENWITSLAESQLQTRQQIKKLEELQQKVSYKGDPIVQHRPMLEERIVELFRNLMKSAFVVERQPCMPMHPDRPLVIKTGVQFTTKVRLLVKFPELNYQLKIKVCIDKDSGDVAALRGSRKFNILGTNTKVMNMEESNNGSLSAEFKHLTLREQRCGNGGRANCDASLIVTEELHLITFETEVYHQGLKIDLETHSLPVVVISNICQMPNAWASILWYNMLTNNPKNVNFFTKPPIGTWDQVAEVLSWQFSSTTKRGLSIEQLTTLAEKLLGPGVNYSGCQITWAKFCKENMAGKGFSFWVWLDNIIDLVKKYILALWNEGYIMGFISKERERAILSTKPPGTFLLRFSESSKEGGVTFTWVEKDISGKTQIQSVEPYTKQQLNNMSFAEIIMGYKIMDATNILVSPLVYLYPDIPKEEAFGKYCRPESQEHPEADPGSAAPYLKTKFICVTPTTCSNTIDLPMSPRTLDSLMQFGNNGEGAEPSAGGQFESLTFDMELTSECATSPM
# Chain of Tyrosine-protein kinase JAK2 (Homo sapiens) (O60674 whole entry): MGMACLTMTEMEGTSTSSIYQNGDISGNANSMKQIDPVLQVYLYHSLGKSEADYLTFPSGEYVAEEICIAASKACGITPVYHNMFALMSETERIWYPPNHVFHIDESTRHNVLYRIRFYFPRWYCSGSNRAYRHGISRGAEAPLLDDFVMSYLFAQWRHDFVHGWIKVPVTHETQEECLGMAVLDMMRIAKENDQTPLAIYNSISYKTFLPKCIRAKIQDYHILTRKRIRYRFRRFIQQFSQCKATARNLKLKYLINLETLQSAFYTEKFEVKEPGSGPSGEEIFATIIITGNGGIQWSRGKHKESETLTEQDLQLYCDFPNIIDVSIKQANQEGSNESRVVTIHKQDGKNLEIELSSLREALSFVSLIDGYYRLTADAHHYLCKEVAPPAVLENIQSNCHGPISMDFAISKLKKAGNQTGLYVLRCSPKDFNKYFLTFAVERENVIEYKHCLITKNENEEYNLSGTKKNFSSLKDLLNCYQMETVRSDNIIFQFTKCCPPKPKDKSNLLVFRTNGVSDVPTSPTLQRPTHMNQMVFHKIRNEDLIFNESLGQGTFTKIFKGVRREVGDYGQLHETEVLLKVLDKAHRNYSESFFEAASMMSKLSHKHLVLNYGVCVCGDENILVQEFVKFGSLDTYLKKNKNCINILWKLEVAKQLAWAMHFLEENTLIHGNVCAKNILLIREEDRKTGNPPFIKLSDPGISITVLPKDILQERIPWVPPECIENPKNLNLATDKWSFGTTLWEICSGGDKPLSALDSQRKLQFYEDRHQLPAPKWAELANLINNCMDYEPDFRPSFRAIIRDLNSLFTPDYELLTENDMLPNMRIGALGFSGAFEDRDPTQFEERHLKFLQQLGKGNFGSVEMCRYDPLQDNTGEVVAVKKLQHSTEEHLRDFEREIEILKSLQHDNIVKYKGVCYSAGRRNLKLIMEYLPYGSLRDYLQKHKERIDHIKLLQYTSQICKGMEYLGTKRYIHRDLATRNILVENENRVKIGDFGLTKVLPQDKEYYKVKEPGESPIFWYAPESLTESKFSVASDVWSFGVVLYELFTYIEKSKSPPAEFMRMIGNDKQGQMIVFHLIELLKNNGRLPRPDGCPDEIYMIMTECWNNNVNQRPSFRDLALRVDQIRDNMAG
smiles,measurement,setting,value
CN1CCN(c2cc3c(cc2Nc2nnc(-c4ccc(C(F)(F)F)cc4)s2)nc(-c2ccc(F)cc2)n3C2CC2)CC1,Activity,[1],Active
same,Activity,MDA-MB-231 [2],Dose-Dependent Effect
same,Activity,DU-145 [3],45.6%
same,Activity,DU-145 [4],Active
same,Activity,[5],Non-Toxic
same,Cp,[6],771 ng/mL
same,inhibition in vivo at 50 mg/kg,DU-145 [7],65.3%
same,microsomal CLint,[8],3.68 µL/min/mg
same,inhibition,HEK-Blue IL-6,101%
same,CL/F,[9],46.8 mL/min/kg
same,bioavailability,[10],52%
same,Activity,[11],Non-Toxic
same,IC50,HCT-116,2190 nM
same,Activity,DU-145 [12],79.6%
same,Activity,MDA-MB-231 [13],5.1%
same,inhibition,[14],Active
same,half-life,[15],596 min
same,inhibition,[16],Dose-Dependent Effect
same,Vd,[17],19 L/kg
same,AUC(0-inf),[18],3450 ng·h/mL
same,inhibition,[19],inactive
same,Activity,MDA-MB-231 [20],59.2%
same,Tmax,[21],3 min
same,MRT last at 96 h,[22],17.1 h
same,inhibition,[23],inactive
same,Activity,MDA-MB-231 [24],5.9%
same,inhibition,[25],Active
same,half-life,[26],377 min
